Results on 2 compounds are retold here after patent US11904051B2, “Shear stress sensitive liposomes” (Universität Basel, priority 2018, dated 2024).

Structures are written as SMILES.

Data set [1] in a line: Spatially resolved SAXS of liposomes under dynamic (flow/shear) condition in microfluidic device. The data set is classed as physicochemical. How it is done:
The measurement in glass capillaries provided the fingerprint of Pad-PC-Pad liposome structure in static condition. In order to investigate the behavior of Pad-PC-Pad liposomes under an external perturbation, such as a shear stress gradient, 2D raster SAXS scans of Pad-PC-Pad liposomes under flow conditions, produced in a microfluidic device, were recorded. Three flow velocities v were tested: v=0.002; 0.02; and 0.2 μL/s. The corresponding shear rates were determined using Eq. 1. From the lowest to the highest flow rate, the shear rates in the constriction (h=250 μm, w=125 μm) were=1.54, 15.4, and 154.0 s^−1, whereas in the wide region (h=250 μm, w=1000 μm) they corresponded to =0.2 s^−1, 2.0 s^−1, and 20.0 s^−1 2 D maps of the mean scattering intensity in the range Δq=0:096 to 0:102 nm^−1 corresponding to a real space range Δd=65.4 to 61.6 nm between the overall size and the size of the phospholipid head-to-head distance are shown in FIG. 12.
The local modifications of the averaged scattering intensity distribution observed in the 2D scanning SAXS maps of FIG. 12 supported the selection of seven regions of the micro fluidic device, as shown in the sketch of FIG. 13. Three regions were selected before the constriction: one far (#1), one approaching (#2), and one very close (A); symmetrically, on the outlet side, three areas were chosen one very close (B), one close (#4), and one far from the constriction (#5). Region #3 was selected in the constriction avoiding the edges of the device. For each region, the radially integrated scattering intensity I as a function of the scattering vector q at each flow rate v is shown.
The spatially resolved SAXS measurements were performed at the cSAXS beamline at the Swiss Light Source (PSI, Villigen, Switzerland). The X-ray beam was focused to 25 μm×50 μm (vertical×horizontal) spot size at the specimen location, the photon energy was set to 11:2 keV (λ=1:1 Å), and the sample-detector distance to 7:102 m, determined by the first scattering order of a silver behenate specimen. The scattering signal was recorded using the Pilatus 2M detector (Kraftet al., J. Synchrotron Radiat. 2009, 16, 368-375) (pixel size: 172 μm_×172 μm). Dynamic spatially resolved SAXS measurements of the liposomal suspensions were performed using microfluidic devices mounted on an aluminum/polyetheretherketone/aluminum sample holder. Two-dimensional (2D) scans were realized line-by-line by continuously moving the device in horizontal direction, while the detector recorded the data in burst mode. 48 (v)×96 (h) points at step size 25 μm (v)×50 μm (h) were acquired in a pre-selected region of the microfluidic device with an exposure time of 1:5 s per point. The data were processed using the Matlab package available from the beamline (https://www.psi.ch/sls/csaxs/software). During the experiment, the flow rates were adjusted using a syringe pump system (Nemesys, Cetoni GmbH, Korbussen, Germany) connected to the microchannel using polytetrafluoroethylene (PTFE) tubing. For the point-wise background correction, the scattering signal of ultra-pure water in the microfluidic device for all the measured flow rates was recorded before the acquisition of the SAXS signal of the liposomal suspensions. For the microfluidic device with a rectangular channel cross-section, the wall shear rates were calculated from the volumetric flow rates v using the following equation: (Molloy et al., Journal of Thrombosis and Haemostasis 2016, 15, 972-982) λ=6v=h^2w (1) with the shear rate [s^−1], v the volumetric flow rate [μL/s], and w and h the width and height [μm] of the channel, respectively.

Data set [2] is described as follows: Cryo-TEM of large unilamellar vesicles made of Rad-PC-Rad. In kind it is physicochemical. Particulars: 509 membrane cuts in cryo-TEM image. The procedure:
The inventors measured the cryo-TEM images according to a previously described protocol (Ishikawa et al, J. Mol. Biol. 2007, 368 (5), 1249-1258). The cryo-TEM images recorded from large unilamellar vesicles (LUV) entirely made of Rad-PC-Rad, show a significant number of strongly facetted shapes below the membranes' main phase transition temperature of the membranes (Tm≈45° C.) (FIGS. 6 and 7). The ratio between facetted and spherical vesicles calculated from FIG. 6 is 21:4.
The interdigitation of the leaflets in a membrane can be directly measured from lateral cuts through the membrane in the cryo-TEM image (FIG. 6). To collect statistically relevant data, the inventors measured 509 membrane cuts (FIG. 6) with a mean membrane thickness of 3.20 nm±0.02 nm (N=509). With two times 0.7 nm for the headgroups, the hydrophobic layer is 1.8 nm thick. An all-trans alkyl chain of 16 C-atoms has a length of 2.05 nm. Thus, the alkyl chains would have a tilt angle of 64°, which is physically absurd. Therefore, a full bilayer interdigitation can be assumed.

The mark [3] stands for this setting: flow rate 0.002 pL/s, position #1.
Where [4] appears, read: flow rate 0.002 pL/s, position #2.
The mark [5] stands for this setting: flow rate 0.002 pL/s, position #3 (constriction).
[6] abbreviates: flow rate 0.002 pL/s, position #4.
Setting [7] is: flow rate 0.002 pL/s, position #5.
Setting [8] is: flow rate 0.002 pL/s, position A.
Where [9] appears, read: flow rate 0.002 pL/s, position B.
The mark [10] stands for this setting: flow rate 0.02 pL/s, position #1.
[11] abbreviates: flow rate 0.02 pL/s, position #2.
Setting [12] is: flow rate 0.02 pL/s, position #3 (constriction).
Setting [13] is: flow rate 0.02 pL/s, position #4.
Where [14] appears, read: flow rate 0.02 pL/s, position #5.
Where [15] appears, read: flow rate 0.02 pL/s, position A.
[16] abbreviates: flow rate 0.02 pL/s, position B.
The mark [17] stands for this setting: flow rate 0.20 pL/s, position #1.
Where [18] appears, read: flow rate 0.20 pL/s, position #2.
[19] abbreviates: flow rate 0.20 pL/s, position #3 (constriction).
[20] abbreviates: flow rate 0.20 pL/s, position #4.
[21] abbreviates: flow rate 0.20 pL/s, position #5.
The mark [22] stands for this setting: flow rate 0.20 pL/s, position A.
[23] abbreviates: flow rate 0.20 pL/s, position B.

`CCCCCCCCCCCCCCCC(=O)NCC(CNC(=O)CCCCCCCCCCCCCCC)OP(=O)([O-])OCC[N+](C)(C)C` [Pad-PC-Pad, 1,3-palmitoylamido-1,3-deoxy-sn-glycero-2-phosphatidylcholine]: the “Radius of gyration Rg” value is on record as 59.5 ± 0.2 nm in data set [1] (setting [3]); 59.1 ± 0.1 nm in data set [1] (setting [4]); 63.0 ± 0.5 nm in data set [1] (setting [5]); 61.1 ± 0.2 nm in data set [1] (setting [6]); 61.6 ± 0.2 nm in data set [1] (setting [7]); 60.3 ± 0.4 nm in data set [1] (setting [8]). For the same compound, the “Radius of gyration Rg” value was 59.3 ± 0.9 nm in data set [1] (setting [9]); 60.2 ± 0.2 nm in data set [1] (setting [10]); 58.0 ± 0.4 nm in data set [1] (setting [11]); 64.3 ± 0.6 nm in data set [1] (setting [12]); 59.1 ± 0.3 nm in data set [1] (setting [13]); 61.3 ± 0.1 nm in data set [1] (setting [14]). For the same compound, the “Radius of gyration Rg” value in data set [1] (setting [15]) is reported as 55.1 ± 0.5 nm; in data set [1] (setting [16]) it was 52.4 ± 0.8 nm; in data set [1] (setting [17]), 61.6 ± 0.4 nm; in data set [1] (setting [18]) it was 61.0 ± 0.5 nm; in data set [1] (setting [19]) it was 64.0 ± 0.8 nm; in data set [1] (setting [20]) it was 58.0 ± 0.3 nm. For the same compound, the entries for the “Radius of gyration Rg” value in data set [1] (setting [21]), in data set [1] (setting [22]) and in data set [1] (setting [23]) were 60.0 ± 0.4 nm, 61.4 ± 0.6 nm and 52.3 ± 0.9 nm, respectively. In addition, the head-to-head distance dhh stood at 3.4 ± 0.7 nm in data set [1] (setting [3]); 3.1 ± 0.4 nm in data set [1] (setting [4]); 3.9 ± 0.7 nm in data set [1] (setting [5]); 3.9 ± 0.4 nm in data set [1] (setting [6]); 3.8 ± 0.3 nm in data set [1] (setting [7]); 3.4 ± 0.5 nm in data set [1] (setting [8]). The head-to-head distance dhh in data set [1] (setting [9]) is 4.0 ± 0.6 nm; in data set [1] (setting [10]), 3.4 ± 0.7 nm; in data set [1] (setting [11]), 2.9 ± 0.2 nm; in data set [1] (setting [12]) it was 3.5 ± 0.6 nm; in data set [1] (setting [13]), 3.6 ± 0.3 nm; in data set [1] (setting [14]), 3.9 ± 0.4 nm. The head-to-head distance dhh in data set [1] (setting [15]) stood at 2.9 ± 0.2 nm; in data set [1] (setting [16]), 4.3 ± 0.5 nm; in data set [1] (setting [17]), 3.4 ± 0.9 nm; in data set [1] (setting [18]), 3.4 ± 0.7 nm; in data set [1] (setting [19]), 3.8 ± 0.8 nm; in data set [1] (setting [20]), 4.0 ± 0.6 nm. For the same compound, the head-to-head distance dhh in data set [1] (setting [21]) is recorded as 4.0 ± 0.7 nm; in data set [1] (setting [22]) it was 3.2 ± 0.6 nm; in data set [1] (setting [23]), 4.4 ± 0.4 nm.
Turning to `CCCCCCCCCCCCCCCCC(=O)NCC(CNC(=O)CCCCCCCCCCCCCCCC)OP(=O)([O-])OCC[N+](C)(C)C` [Rad-PC-Rad, 1,3-diheptadecanamidopropan-2-yl (2-(trimethylammonio)ethyl) phosphate], in data set [2], the mean membrane thickness was determined as 3.20 nm.
